Reference: patent US8202902B2, “Bivalent SMAC mimetics and the uses thereof” (The Regents of the University of Michigan, priority 2006, dated 2012)

Assays:
[1] = molecular target: T1, human XIAP protein (residues 120-356) (Homo sapiens, UniProt P98170); test: Fluorescence-polarization-based binding assay to XIAP protein (Smac2-F tracer); settings: read-out: Binding to XIAP IC50 values
T1 construct: human XIAP protein (residues 120-356) (10 nM)
Experimental: The polarization values were measured after 2 hours incubation, using the Ultra plate reader. […] Curve fitting is performed using GraphPad Prism® software.

[2] = test system: MDA-MB-231 human breast cancer cell line; test: Cell growth inhibition, WST-8 assay, MDA-MB-231; assay type: cell-based; settings: MDA-MB-231, read-out: IC50 values (nM) In WST-assay (MDA-MB-231)
Experimental: (§1) The rate of cell growth inhibition after treatment with different concentrations of the compound was determined using a WST-8 kit (2-(2-methoxy-4-nitrophenyl)-3-(4-nitrophenyl)-5-(2, 4 disulfophenyl)-2H-tetrazolium monosodium salt; Dojindo Molecular Technologies, Inc., Gaithersburg, Md.). WST-8 was added at a final concentration of 10% to each well, and then the plates were incubated at 37° C. for 2-3 hrs. The absorbance of the samples was measured at 450 nm using a ULTRA Tecan Reader (Molecular Device).

[3] = test system: SK-OV-3; test: Cell growth inhibition, WST assay, SK-OV-3; assay type: cell-based; settings: Homo sapiens
Experimental: as §1, with “Cells were seeded in 96-well flat bottom cell culture plates at a density of 3000 cells/well with a tested compound and incubated at 37° C. in an atmosphere of 95% air and 5% CO2 for 4 days. The rate” for “The rate”

T1 sequence (P98170 120-356): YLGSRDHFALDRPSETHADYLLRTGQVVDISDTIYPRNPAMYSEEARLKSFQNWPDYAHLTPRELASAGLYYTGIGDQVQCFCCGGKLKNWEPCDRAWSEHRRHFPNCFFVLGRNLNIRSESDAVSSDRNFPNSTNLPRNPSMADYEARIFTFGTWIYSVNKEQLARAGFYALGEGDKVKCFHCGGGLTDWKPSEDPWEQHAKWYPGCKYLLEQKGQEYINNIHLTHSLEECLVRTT

SMILES | IC50 [1] | IC50 [2] | IC50 [3]
CN[C@@H](C)C(=O)N[C@H]1CN(Cc2ccc(CN3CC[C@H]4CC[C@@H](C(=O)NC(c5ccccc5)c5ccccc5)N4C(=O)[C@@H](NC(=O)[C@H](C)NC)C3)cc2)CC[C@H]2CC[C@@H](C(=O)NC(c3ccccc3)c3ccccc3)N2C1=O [YP-317] | < 100 nM | < 100 nM | –
CN[C@@H](C)C(=O)N[C@H]1CCCC[C@H]2CC[C@@H](C(=O)N[C@@H](c3ccccc3)c3cn(CCCCCCCCn4cc([C@@H](NC(=O)[C@@H]5CC[C@@H]6CCCC[C@H](NC(=O)[C@H](C)NC)C(=O)N65)c5ccccc5)nn4)nn3)N2C1=O [SH-167] | – | < 10 nM | < 10 nM
C[C@H](NCCO)C(=O)N[C@H]1CCCC[C@H]2CC[C@@H](C(=O)N[C@@H](c3ccccc3)c3cn(CCCCc4ccc(CCCCn5cc([C@@H](NC(=O)[C@@H]6CC[C@@H]7CCCC[C@H](NC(=O)[C@H](C)NCCO)C(=O)N76)c6ccccc6)nn5)cc4)nn3)N2C1=O [SH-180] | < 100 nM | < 1000 nM | < 1000 nM
CN[C@@H](C)C(=O)N[C@H]1CCCC[C@H]2CC[C@@H](C(=O)N[C@@H](c3ccccc3)c3ccc(CCCCNC(=O)NCCCCc4ccc([C@@H](NC(=O)[C@@H]5CC[C@@H]6CCCC[C@H](NC(=O)[C@H](C)NC)C(=O)N65)c5ccccc5)cc4)cc3)N2C1=O [SH-190] | < 100 nM | < 10 nM | < 10 nM
CN[C@@H](C)C(=O)N[C@H]1CCCC[C@H]2CC[C@@H](C(=O)N[C@@H](c3ccccc3)c3cn(CCOCCn4cc([C@@H](NC(=O)[C@@H]5CC[C@@H]6CCCC[C@H](NC(=O)[C@H](C)NC)C(=O)N65)c5ccccc5)nn4)nn3)N2C1=O [SH-159] | < 10 nM | < 1000 nM | < 1000 nM
CN[C@@H](C)C(=O)N[C@H]1CCCC[C@H]2CC[C@@H](C(=O)N[C@@H](c3ccccc3)c3cn(CCOCCOCCn4cc([C@@H](NC(=O)[C@@H]5CC[C@@H]6CCCC[C@H](NC(=O)[C@H](C)NC)C(=O)N65)c5ccccc5)nn4)nn3)N2C1=O [SH-158] | < 10 nM | < 1000 nM | < 1000 nM
CN[C@@H](C)C(=O)N[C@H]1CCCC[C@H]2CC[C@@H](C(=O)N[C@@H](c3ccccc3)c3ccc(CCCn4cc(COCc5cn(CCCc6ccc([C@@H](NC(=O)[C@@H]7CC[C@@H]8CCCC[C@H](NC(=O)[C@H](C)NC)C(=O)N87)c7ccccc7)cc6)nn5)nn4)cc3)N2C1=O [SH-155] | < 10 nM | < 100 nM | < 100 nM
CN[C@@H](C)C(=O)N[C@H]1CCCC[C@H]2CC[C@@H](C(=O)N[C@H](COCc3cn([C@@H]4CC[C@H](NC(=O)[C@H](C)NC)C(=O)N5[C@H](CC[C@H]5C(=O)N[C@@H]5CCCc6ccccc65)C4)nn3)c3ccccc3)N2C1=O [SH-146] | < 50 nM | – | –
CN[C@@H](C)C(=O)N[C@H]1CN(C(=O)CCCCCCC(=O)N2CC[C@H]3CCC(C(=O)NC(c4ccccc4)c4ccccc4)N3C(=O)[C@@H](NC(=O)[C@H](C)NC)C2)CC[C@H]2CCC(C(=O)NC(c3ccccc3)c3ccccc3)N2C1=O (stereo partly shown) [YP-385] | – | < 10 nM | < 10 nM
CN[C@@H](C)C(=O)N[C@H]1CCCC[C@H]2CCC(C(=O)N[C@H](COCCCCCCCCCCCCOC[C@@H](NC(=O)[C@@H]3CC[C@@H]4CCCC[C@H](NC(=O)[C@H](C)NC)C(=O)N43)c3ccccc3)c3ccccc3)N2C1=O (stereo partly shown) [SH-202] | < 100 nM | < 10 nM | < 10 nM
CN[C@@H](C)C(=O)N[C@H]1CCCC[C@H]2CC[C@@H](C(=O)N[C@@H](c3ccc(F)cc3)c3cn(CCN4CCN(CCn5cc([C@@H](NC(=O)[C@@H]6CC[C@@H]7CCCC[C@H](NC(=O)[C@H](C)NC)C(=O)N76)c6ccc(F)cc6)nn5)CC4)nn3)N2C1=O [SH-181] | < 100 nM | < 10000 nM | –
CN[C@@H](C)C(=O)N[C@H]1CC[C@@H](n2cc(COCc3cn([C@@H]4CC[C@H](NC(=O)[C@H](C)NC)C(=O)N5[C@H](CC[C@H]5C(=O)N[C@H]5CCCc6ccccc65)C4)nn3)nn2)C[C@H]2CC[C@@H](C(=O)NC3CCCc4ccccc43)N2C1=O (stereo partly shown) [SH-153] | < 10 nM | < 1000 nM | –
CN[C@@H](C)C(=O)N[C@H]1CC[C@H](n2cc(COCc3cn([C@H]4CC[C@H](NC(=O)[C@H](C)NC)C(=O)N5[C@H](CC[C@H]5C(=O)NC(c5ccccc5)c5ccccc5)C4)nn3)nn2)C[C@H]2CC[C@@H](C(=O)NC(c3ccccc3)c3ccccc3)N2C1=O [SH-176] | < 10 nM | < 100 nM | –
C[C@H](NCCO)C(=O)N[C@H]1CCCC[C@H]2CC[C@@H](C(=O)N[C@@H](c3ccccc3)c3cn(CCN4CCN(CCn5cc([C@@H](NC(=O)[C@@H]6CC[C@@H]7CCCC[C@H](NC(=O)[C@H](C)NCCO)C(=O)N76)c6ccccc6)nn5)CC4)nn3)N2C1=O [SH-179] | < 100 nM | < 10000 nM | –
CN[C@@H](C)C(=O)N[C@H]1CN(C(=O)CCCCCCCCCCC(=O)N2CC[C@H]3CC[C@@H](C(=O)NC(c4ccccc4)c4ccccc4)N3C(=O)[C@@H](NC(=O)[C@H](C)NC)C2)CC[C@H]2CC[C@@H](C(=O)NC(c3ccccc3)c3ccccc3)N2C1=O [YP-383] | – | < 10 nM | < 10 nM
CN[C@@H](C)C(=O)N[C@H]1CCCC[C@H]2CC[C@@H](C(=O)N[C@@H](c3ccc(F)cc3)c3cn(CCCCc4ccc(CCCCn5cc([C@@H](NC(=O)[C@@H]6CC[C@@H]7CCCC[C@H](NC(=O)[C@H](C)NC)C(=O)N76)c6ccc(F)cc6)nn5)cc4)nn3)N2C1=O [SH-182] | < 100 nM | < 10 nM | < 10 nM
CNC(Cc1c[nH]c2ccccc12)C(=O)NC1CCCCC2CCC(C(=O)NC(c3ccccc3)c3cn(CCCCc4ccc(CCCCn5cc(C(NC(=O)C6CCC7CCCCC(NC(=O)C(Cc8c[nH]c9ccccc89)NC)C(=O)N76)c6ccccc6)nn5)cc4)nn3)N2C1=O (stereo not shown) [SH-187] | > 10000 nM | – | –
CN[C@@H](C)C(=O)N[C@H]1CCCC[C@H]2CC[C@@H](C(=O)N[C@@H](c3ccccc3)c3ccc(CCCNC(=S)NCCCc4ccc([C@@H](NC(=O)[C@@H]5CC[C@@H]6CCCC[C@H](NC(=O)[C@@H](C)NC)C(=O)N65)c5ccccc5)cc4)cc3)N2C1=O [SH-189] | < 100 nM | < 100 nM | < 100 nM
C[C@H](NCCO)C(=O)N[C@H]1CCCC[C@H]2CC[C@@H](C(=O)N[C@@H](c3ccc(F)cc3)c3cn(CCCCc4ccc(CCCCn5cc([C@@H](NC(=O)[C@@H]6CC[C@@H]7CCCC[C@H](NC(=O)[C@H](C)NCCO)C(=O)N76)c6ccc(F)cc6)nn5)cc4)nn3)N2C1=O [SH-184] | < 100 nM | < 10 nM | < 100 nM
CN[C@@H](C)C(=O)N[C@H]1CCCC[C@H]2CC[C@@H](C(=O)N[C@@H](c3ccccc3)c3cn(CCCCCOCCCCn4cc([C@@H](NC(=O)[C@@H]5CC[C@@H]6CCCC[C@H](NC(=O)[C@H](C)NC)C(=O)N65)c5ccccc5)nn4)nn3)N2C1=O [SH-198] | < 100 nM | < 10 nM | < 10 nM
CN[C@@H](C)C(=O)N[C@H]1CCCC[C@H]2CC[C@@H](C(=O)N[C@H](c3ccccc3)c3cn(CCCCc4ccc(CCCCn5cc([C@H](NC(=O)[C@@H]6CC[C@@H]7CCCC[C@H](NC(=O)[C@H](C)NC)C(=O)N76)c6ccccc6)nn5)cc4)nn3)N2C1=O [SH-206] | – | < 1000 nM | < 1000 nM
CN[C@@H](C)C(=O)N[C@H]1CC[C@@H](n2cc(COCc3cn([C@@H]4CC[C@H](NC(=O)[C@H](C)NC)C(=O)N5[C@H](CC[C@H]5C(=O)NC(c5ccccc5)c5ccccc5)C4)nn3)nn2)C[C@H]2CC[C@@H](C(=O)NC(c3ccccc3)c3ccccc3)N2C1=O [SH-177] | < 10 nM | < 100 nM | –
CN[C@@H](C)C(=O)N[C@H]1CC[C@H](n2cc(COCc3cn([C@H]4CC[C@H](NC(=O)[C@H](C)NC)C(=O)N5[C@H](CC[C@H]5C(=O)N[C@@H]5CCCc6ccccc65)C4)nn3)nn2)C[C@H]2CC[C@@H](C(=O)N[C@@H]3CCCc4ccccc43)N2C1=O (stereo in doubt) [SH-172] | < 10 nM | < 1000 nM | –
C[C@H](NCCO)C(=O)N[C@H]1CCCC[C@H]2CC[C@@H](C(=O)N[C@@H](c3ccc(F)cc3)c3cn(CCN4CCN(CCn5cc([C@@H](NC(=O)[C@@H]6CC[C@@H]7CCCC[C@H](NC(=O)[C@H](C)NCCO)C(=O)N76)c6ccc(F)cc6)nn5)CC4)nn3)N2C1=O [SH-183] | < 100 nM | < 10000 nM | –
CN[C@@H](C)C(=O)N[C@H]1CN(C(=O)CCCCCCCCC(=O)N2CC[C@H]3CCC(C(=O)NC(c4ccccc4)c4ccccc4)N3C(=O)[C@@H](NC(=O)[C@H](C)NC)C2)CC[C@H]2CCC(C(=O)NC(c3ccccc3)c3ccccc3)N2C1=O (stereo partly shown) [YP-381] | – | < 10 nM | < 10 nM
CN[C@@H](C)C(=O)N[C@H]1CCCC[C@H]2CC[C@@H](C(=O)N[C@H](COCCn3cc(COC[C@@H](NC(=O)[C@@H]4CC[C@@H]5CCCC[C@H](NC(=O)[C@H](C)NC)C(=O)N54)c4ccccc4)nn3)c3ccccc3)N2C1=O [SH-143] | < 50 nM | – | –
CN[C@@H](C)C(=O)N[C@H]1CCCC[C@H]2CC[C@@H](C(=O)N[C@@H](c3ccccc3)c3cn(CCN4CCN(CCn5cc([C@@H](NC(=O)[C@@H]6CC[C@@H]7CCCC[C@H](NC(=O)[C@H](C)NC)C(=O)N76)c6ccccc6)nn5)CC4)nn3)N2C1=O [SH-178] | < 100 nM | < 10000 nM | –
